This passage reports IC50 results from PMC2790104, “Effects of Acrylamide on the Activity and Structure of Human Brain Creatine Kinase” (International Journal of Molecular Sciences, 2009).

The assay deals with T1, HBCK (human brain-type creatine kinase, human BB-CK) (Homo sapiens, UniProt P12277).
T1 construct: gene CKB; homodimer BB; identified by LC-MS/MS
Put plainly: residual activity after […] h incubation, pH-colorimetric assay (thymol blue, […] nm). The assay is classed as biochemical.

Each structure is given as a SMILES string.

T1 sequence (P12277 2-381): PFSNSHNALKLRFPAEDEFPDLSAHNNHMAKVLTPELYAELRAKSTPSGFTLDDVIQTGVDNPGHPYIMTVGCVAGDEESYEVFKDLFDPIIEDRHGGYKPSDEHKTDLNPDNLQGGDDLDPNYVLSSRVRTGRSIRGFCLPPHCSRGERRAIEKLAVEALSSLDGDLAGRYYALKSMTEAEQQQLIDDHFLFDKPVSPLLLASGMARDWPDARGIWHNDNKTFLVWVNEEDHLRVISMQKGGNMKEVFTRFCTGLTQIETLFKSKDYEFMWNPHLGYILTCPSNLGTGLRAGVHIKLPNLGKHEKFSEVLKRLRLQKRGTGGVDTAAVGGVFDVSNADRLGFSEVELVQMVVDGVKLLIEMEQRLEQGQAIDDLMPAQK

Broadly, the IC50 is the concentration that inhibits the measured activity by half. A higher IC50 goes with weaker potency in that assay. On to `C=CC(N)=O` [acrylamide], for which the 50% inhibitory concentration (IC50) is around 50 mM.
